Assay results reported in publication PMC9154192 (PLoS Biology, 2022).
Values after ≈ are worked out from the molar mass of the structure shown. Values joined by “and” are separate entries in the source; they are usually repeats but may differ in a detail not shown here. Equal entries are not always repeated. Where two headings read alike, the source gives them in different places.

Columns and labels:
M. phlei = experiment: microbe, parasite or virus in culture; format: cell-based, Mycobacterium phlei; conditions: Mycolicibacterium phlei
M. neoaurum = experiment: microbe, parasite or virus in culture; format: cell-based, Mycobacterium neoaurum; conditions: Mycolicibacterium neoaurum
Cryptococcus neoformans = experiment: Broth dilution MIC (CLSI); format: cell-based; conditions: read-out: MIC
Shigella dysenteriae = experiment: Broth dilution MIC (CLSI); format: cell-based; conditions: read-out: MIC
Acinetobacter baumannii = experiment: Broth dilution MIC (CLSI); format: cell-based; conditions: read-out: MIC
[1] = system: Staphylococcus aureus, MRSA; experiment: Broth dilution MIC (CLSI); format: cell-based; conditions: read-out: MIC
Salmonella Paratyphi A = experiment: Broth dilution MIC (CLSI); format: cell-based; conditions: Salmonella enterica; Salmonella Paratyphi A; read-out: MIC
Escherichia coli O157 = experiment: Broth dilution MIC (CLSI); format: cell-based; conditions: read-out: MIC
Streptococcus pneumoniae = experiment: Broth dilution MIC (CLSI); format: cell-based; conditions: read-out: MIC
Shigella sonnei = experiment: Broth dilution MIC (CLSI); format: cell-based; conditions: read-out: MIC
Pseudomonas aeruginosa = experiment: Broth dilution MIC (CLSI); format: cell-based; conditions: read-out: MIC
Enterobacter aerogenes = experiment: Broth dilution MIC (CLSI); format: cell-based; conditions: Klebsiella aerogenes; Enterobacter aerogenes; read-out: MIC
Saccharomyces cerevisiae = experiment: Broth dilution MIC (CLSI); format: cell-based; conditions: read-out: MIC
Citrobacter freundii = experiment: Broth dilution MIC (CLSI); format: cell-based; conditions: read-out: MIC
M. bovis = experiment: microbe, parasite or virus in culture; format: cell-based; conditions: Mycobacterium tuberculosis variant bovis
M. tuberculosis H37Rv [2] = experiment: Luminescence-based microbial cell viability assay; design: species or system Mycobacterium tuberculosis; conditions: for RLU/50ul (replicates1-3), single values / RLU/ml (×100) / RLU/50ul (average): Fig 2C
M. tuberculosis H37Rv [3] = format: in vivo, BALB/c mice; design: Efficacy in BALB/C mouse model of pulmonary tuberculosis, Average / Efficacy in BALB/C mouse model of pulmonary tuberculosis, values of mice 1-6: unit not given here
M. phocaicum = experiment: microbe, parasite or virus in culture; format: cell-based, Mycobacterium phocaicum; conditions: Mycolicibacterium phocaicum
M. tuberculosis H37Rv [4] = format: cell-based, Mycobacterium tuberculosis; conditions: for CFU/ml (average) / CFU/ml, single values / Intracellular M. tuberculosis, % (Drug Free = 100.0): Fig 3B, H37Rv
XDR M. tuberculosis = format: cell-based, Mycobacterium tuberculosis
in vitro [5] = format: cell-based, murine; conditions: mouse
Method in brief: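 MTT and WST-1 viability read-outs; cytotoxicity testing per earlier published protocols.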

[6] = system: XDR M. tuberculosis (KMRC 00203–00197); format: cell-based, Mycobacterium tuberculosis; conditions: for log reduction (CFU): 7 days
in vitro [7] = format: cell-based; conditions: human
Procedure: A549 human pulmonary epithelial cells (KCLB 10185), human embryonic kidney (HEK) 293 cells (KCLB 21573), human THP-1 leukemia cells (KCLB 40202), human neuroblastoma SH-SY5Y cells (KCLB 22266), Murine Raw 264.7 macrophages (KCLB 40071), and L929 murine fibroblasts (KCLB 10001) were purchased from the KCLB (Seoul, Korea). Cytotoxicity testing was performed using the MTT assay and the WST-1 cell viability assay as previously described.

M. tuberculosis H37Ra = experiment: microbe, parasite or virus in culture; format: cell-based, Mycobacterium tuberculosis; conditions: Mycobacterium tuberculosis, H37RA

CCCCOc1ccc2cc(CN3C(=O)CC[C@H]3C(=O)OC)c3cc(OC)c(OC)cc3c2c1 [PP2S, Methyl (S)-1-((3-butoxy-6,7-dimethoxyphenanthren-9-yl)methyl)-5-oxopyrrolidine-2-carboxylate]
MIC (M. phlei): > 100 µg/mL | MIC (M. neoaurum): > 100 µg/mL | MIC (Cryptococcus neoformans): > 100 µg/mL | MIC (Shigella dysenteriae): > 100 µg/mL | MIC (Acinetobacter baumannii): > 100 µg/mL | MIC [1]: > 100 µg/mL | MIC (Salmonella Paratyphi A): > 100 µg/mL | MIC (Escherichia coli O157): > 100 µg/mL | MIC (Streptococcus pneumoniae): > 100 µg/mL | MIC (Shigella sonnei): > 100 µg/mL | MIC (Pseudomonas aeruginosa): > 100 µg/mL | MIC (Enterobacter aerogenes): > 100 µg/mL | MIC (Saccharomyces cerevisiae): > 100 µg/mL | MIC (Citrobacter freundii): > 100 µg/mL | MIC (M. bovis): 0.8 µg/mL (≈ 1.72 µM) | RLU/50ul (replicates1-3), single values (M. tuberculosis H37Rv [2]; drug conc. 0.39): 1160 RLU/50ul and 1020 RLU/50ul and 2640 RLU/50ul and 2720 RLU/50ul and 2990 RLU/50ul and 1770 RLU/50ul and 1810 RLU/50ul and 1690 RLU/50ul and 1170 RLU/50ul | RLU/ml (×100) (M. tuberculosis H37Rv [2]; drug conc. 0.39): 377.1 RLU/ml (×100) | RLU/50ul (average) (M. tuberculosis H37Rv [2]; drug conc. 0.39, average of each replicate set): 2783 RLU/50ul and 1757 RLU/50ul and 1117 RLU/50ul | RLU/50ul (replicates1-3), single values (M. tuberculosis H37Rv [2]; drug conc. 0.78): 410 RLU/50ul and 270 RLU/50ul and 850 RLU/50ul (2×) and 870 RLU/50ul and 620 RLU/50ul and 650 RLU/50ul and 580 RLU/50ul and 390 RLU/50ul | RLU/ml (×100) (M. tuberculosis H37Rv [2]; drug conc. 0.78): 122.0 RLU/ml (×100) | RLU/50ul (average) (M. tuberculosis H37Rv [2]; drug conc. 0.78, average of each replicate set): 857 RLU/50ul and 617 RLU/50ul and 357 RLU/50ul | RLU/50ul (replicates1-3), single values (M. tuberculosis H37Rv [2]; drug conc. 1.56): 120 RLU/50ul and 160 RLU/50ul and 360 RLU/50ul and 370 RLU/50ul and 420 RLU/50ul and 110 RLU/50ul and 130 RLU/50ul (2×) and 170 RLU/50ul | RLU/ml (×100) (M. tuberculosis H37Rv [2]; drug conc. 1.56): 43.8 RLU/ml (×100) | RLU/50ul (average) (M. tuberculosis H37Rv [2]; drug conc. 1.56, average of each replicate set): 383 RLU/50ul and 137 RLU/50ul (2×) | concentration with significant antitubercular effect (M. tuberculosis H37Rv [2]; luminescence-based assay): 1.56 µg/mL and 0.78 µg/mL | Efficacy in BALB/C mouse model of pulmonary tuberculosis, values of mice 1-6 (M. tuberculosis H37Rv [3]; Fig 4C, group dose 30): 3500000 and 3600000 and 2100000 and 2300000 and 3900000 and 3400000 | Efficacy in BALB/C mouse model of pulmonary tuberculosis, Average (M. tuberculosis H37Rv [3]; Fig 4C, group dose 30, 6 mice): 3133333 | Efficacy in BALB/C mouse model of pulmonary tuberculosis, Average (M. tuberculosis H37Rv [3]; Fig 4C, group dose 100, 6 mice): 550000 | bacterial burden in the lungs compared to control group (M. tuberculosis H37Rv [3]; mouse, in vivo, po): significantly reduced | MIC (M. phocaicum): > 100 µg/mL | CFU/ml (average) (M. tuberculosis H37Rv [4]; drug conc. 1.6): 26807 CFU/ml | CFU/ml, single values (M. tuberculosis H37Rv [4]; drug conc. 1.6): 23800 CFU/ml and 25500 CFU/ml and 31120 CFU/ml | Intracellular M. tuberculosis, % (Drug Free = 100.0) (M. tuberculosis H37Rv [4]; drug conc. 1.6): 79.7% | CFU/ml (average) (M. tuberculosis H37Rv [4]; drug conc. 3.1): 22130 CFU/ml | CFU/ml, single values (M. tuberculosis H37Rv [4]; drug conc. 3.1): 17950 CFU/ml and 21400 CFU/ml and 27040 CFU/ml | Intracellular M. tuberculosis, % (Drug Free = 100.0) (M. tuberculosis H37Rv [4]; drug conc. 3.1): 65.8% | CFU/ml (average) (M. tuberculosis H37Rv [4]; drug conc. 6.3): 12950 CFU/ml | Intracellular M. tuberculosis, % (Drug Free = 100.0) (M. tuberculosis H37Rv [4]; drug conc. 6.3): 38.5% | CFU/ml (average) (M. tuberculosis H37Rv [4]; drug conc. 12.5): 7367 CFU/ml | Intracellular M. tuberculosis, % (Drug Free = 100.0) (M. tuberculosis H37Rv [4]; drug conc. 12.5): 21.9% | CFU/ml (average) (M. tuberculosis H37Rv [4]; drug conc. 25): 640 CFU/ml | Intracellular M. tuberculosis, % (Drug Free = 100.0) (M. tuberculosis H37Rv [4]; drug conc. 25): 1.9% | growth of M. tuberculosis in macrophages (CFU) (M. tuberculosis H37Rv [4]; H37Rv in Raw 264.7 cells, 3 days, concentration-dependent): significantly inhibited the growth | RFU/200 μl (replicates1-3), single values (XDR M. tuberculosis): 9970 RFU/200 μl and 10020 RFU/200 μl and 9360 RFU/200 μl and 9560 RFU/200 μl and 10400 RFU/200 μl and 10740 RFU/200 μl and 10810 RFU/200 μl and 10890 RFU/200 μl and 9990 RFU/200 μl and 20170 RFU/200 μl and 19980 RFU/200 μl and 20200 RFU/200 μl and 19820 RFU/200 μl and 20260 RFU/200 μl and 22530 RFU/200 μl and 22620 RFU/200 μl and 22580 RFU/200 μl and 20070 RFU/200 μl and 37150 RFU/200 μl and 37370 RFU/200 μl and 42810 RFU/200 μl and 39680 RFU/200 μl and 39960 RFU/200 μl and 41160 RFU/200 μl and 41210 RFU/200 μl and 41220 RFU/200 μl and 37280 RFU/200 μl | concentration with significant antitubercular effect (XDR M. tuberculosis): 0.39 µg/mL | CC50 (in vitro [5]; L929): > 500 µg/mL | CC50 (in vitro [5]; Raw264.7): > 500 µg/mL | CFU (log) [6]: 3.65 and 3.73 | CFU (replicates1-3), single values [6]: 5500 CFU and 1100 CFU and 2900 CFU and 2700 CFU and 6500 CFU and 5100 CFU and 5400 CFU and 6100 CFU and 5320 CFU and 9100 CFU and 3200 CFU (2×) and 3600 CFU and 3300 CFU and 3400 CFU and 2100 CFU and 12800 CFU and 8170 CFU | log reduction (CFU) ([6]; at 0.8 μg/ml): 1.8 | log reduction (CFU) ([6]; at 1.6 μg/ml): 1.9 | CC50 (in vitro [7]; A549): > 500 µg/mL | CC50 (in vitro [7]; HEK-293): > 500 µg/mL | CC50 (in vitro [7]; SH-SY5Y): > 500 µg/mL | CC50 (in vitro [7]; THP-1): > 500 µg/mL | MIC (M. tuberculosis H37Ra): 0.4 µg/mL (≈ 0.859 µM)
